In patent publication US10301305B2 (priority 2014, dated 2019):
Where a name gives a salt, the structure may show the parent alone.

How the values were obtained:
Format in all cases: biochemical
S. aureus DltA = S. aureus DltA (Staphylococcus aureus (strain NCTC 8325 / PS 47), UniProt Q2FZW6); assay: in vitro DltA activity assay (luminescence), S. aureus DltA; settings: recombinant DltA, 30 min pre-incubation, 0.5 mM D-Alanine, 0.5-5 μM ATP; read-out: S. aureus DltA IC50
Method: (§1) The effect of the compounds of the invention on DltA enzymes has been based on the measure of their inhibition of DltA activity in vitro. To this end, recombinant proteins DltA were expressed and purified after cloning of the genes of S. aureus, E. faecalis, E. faecium and S. agalactiae as described thereafter. The capacity of the compounds of the invention to inhibit DltA enzymatic activity was assessed using the DltA assays as described below:
(§2) The dltA gene was amplified from chromosomal DNA of S. aureus, E. faecalis, E. faecium and S. agalactiae and introduced into E. coli BL21 (Invitrogen, Carlsbad, Calif.) following manufacturer's instruction. Bacteria were grown at 37° C. under aerobic conditions and isopropyl-beta-D-thiogalactopyranoside (IPTG) was added to 0.5-1 mM when OD600 of the bacterial culture had reached 0.5. After a further incubation for 3 hours, cells were harvested by centrifugation. Purification of the recombinant DltA protein was performed by affinity chromatography on nickel-nitrilotriacetic acid (Ni-NTA) column following manufacturer's instructions (Qiagen). Fractions containing recombinant DltA protein were adjusted to 50% glycerol and stored at −20° C. until use.
(§3) The binding potency of the inhibitors against DltA enzyme was assessed by IC50 determination in an in vitro DltA activity assay. The assay buffer “AB” contained 50 mM Hepes pH8.0, 10 mM MgCl2, 50 mM KCl, 0.012% Triton-X100, 10 mM DTT and 100 nM Myelin-basic protein. The following components were added in a white polystyrene Costar plate up to a final volume of 30 μL: 3 μL DMSO, or inhibitor dissolved in DMSO and 27 μL DltA enzyme in AB. After 30 min of pre-incubation at room temperature, 30 μL of Substrates mix in AB were added in each well to a final volume of 60 μL. This reaction mixture was then composed of DltA (produced in house from S. aureus, E. faecalis, E. faecium and S. agalactiae), 0.5 mM D-Alanine (Sigma), 0.5-5 μM ATP (Sigma) and 0.05 u/ml inorganic pyrophosphatase (Sigma) in assay buffer. After typically 1-2 hours of incubation at room temperature (conversion rate around 30%), 30 μL of the revelation mix were added to a final volume of 90 μL, including the following constituents at the respective final concentrations: 10000 u/ml luciferase (Sigma), 30 μM D-luciferin (Sigma), 100 μM N-acetylcysteamine (Aldrich). Luminescence intensity was immediately measured on a Fluostar Optima (BMG) (excitation 360 nm, emission 520 nm) and converted into inhibition percentages. For IC50 determinations (Inhibitory Concentration 50%) the inhibitor was added at 6 to 10 different concentrations and the related inhibitions were fitted to a classical Langmuir equilibrium model using XLFIT (IDBS).
(§4) For compounds interfering with the luminescent signal (quenching), the same experiment without DltA enzyme was performed to allow quenching determination and correction.

E. feacalis DltA = E. feacalis DltA (Enterococcus faecalis, UniProt Q830N0); assay: in vitro DltA activity assay (luminescence), E. faecalis DltA; settings: recombinant DltA, 30 min pre-incubation, 0.5 mM D-Alanine, 0.5-5 μM ATP; read-out: E. feacalis DltA IC50
E. feacalis DltA, sequence (Q830N0 1-506): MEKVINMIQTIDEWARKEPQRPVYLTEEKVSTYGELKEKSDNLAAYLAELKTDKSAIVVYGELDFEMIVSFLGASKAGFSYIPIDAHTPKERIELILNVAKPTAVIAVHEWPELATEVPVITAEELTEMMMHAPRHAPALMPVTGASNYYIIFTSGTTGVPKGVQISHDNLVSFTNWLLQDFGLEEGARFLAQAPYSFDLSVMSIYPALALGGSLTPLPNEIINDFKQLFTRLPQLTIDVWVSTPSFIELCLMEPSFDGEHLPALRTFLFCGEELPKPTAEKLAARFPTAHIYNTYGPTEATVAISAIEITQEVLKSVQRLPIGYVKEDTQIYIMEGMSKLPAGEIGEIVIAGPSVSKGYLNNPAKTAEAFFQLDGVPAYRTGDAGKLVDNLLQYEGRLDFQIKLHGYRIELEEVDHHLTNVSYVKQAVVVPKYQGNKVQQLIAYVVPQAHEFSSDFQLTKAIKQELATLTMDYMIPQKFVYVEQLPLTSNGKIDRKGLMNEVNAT
Method: as §1, §2, §3, §4

E. feacium DltA = E. feacium DltA (Enterococcus faecium, UniProt Q3XZT7); assay: in vitro DltA activity assay (luminescence), E. faecium DltA; settings: recombinant DltA, 30 min pre-incubation, 0.5 mM D-Alanine, 0.5-5 μM ATP; read-out: E. feacium DltA IC50
E. feacium DltA, sequence (Q3XZT7 1-504): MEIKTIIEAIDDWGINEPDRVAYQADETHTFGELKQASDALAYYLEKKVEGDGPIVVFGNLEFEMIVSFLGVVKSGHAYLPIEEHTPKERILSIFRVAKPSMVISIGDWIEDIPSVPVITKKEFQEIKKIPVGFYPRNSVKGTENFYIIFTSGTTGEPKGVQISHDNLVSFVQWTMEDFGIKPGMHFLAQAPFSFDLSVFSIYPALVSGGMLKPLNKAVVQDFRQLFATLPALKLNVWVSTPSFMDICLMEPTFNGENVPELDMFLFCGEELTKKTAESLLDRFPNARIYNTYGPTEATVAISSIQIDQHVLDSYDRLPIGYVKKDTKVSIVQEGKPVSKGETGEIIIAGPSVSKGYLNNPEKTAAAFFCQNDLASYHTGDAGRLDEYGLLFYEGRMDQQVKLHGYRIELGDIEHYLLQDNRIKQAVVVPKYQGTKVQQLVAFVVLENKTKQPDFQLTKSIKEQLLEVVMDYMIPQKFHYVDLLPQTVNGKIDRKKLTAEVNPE
Method: as §1, §2, §3, §4

S. Agalactiae DltA = S. Agalactiae DltA (Streptococcus agalactiae serotype III (strain NEM316), UniProt Q8VM67); assay: in vitro DltA activity assay (luminescence), S. agalactiae DltA; settings: recombinant DltA, 30 min pre-incubation, 0.5 mM D-Alanine, 0.5-5 μM ATP; read-out: S. Agalactiae DltA IC50
Method: as §1, §2, §3, §4

Compound | IC50 (S. aureus DltA) [nM] | IC50 (E. feacalis DltA) [nM] | IC50 (E. feacium DltA) [nM] | IC50 (S. Agalactiae DltA) [nM]
CCCCn1cnc2cc(-c3cc(N(C)CCN(C)C)c(C(N)=O)c4[nH]cnc34)ccc21 [Example 203, 7-(1-butylbenzimidazol-5-yl)-5-[2-(dimethylamino)ethyl-methyl-amino]-3H-benzimidazole-4-carboxamide] | 28 | 7.3 | 110 | 350
CN(C)CCCN(C)c1cc(-c2ccc3c(c2)ncn3C2CCCCC2)c2nc[nH]c2c1C(N)=O [Example 122, 1′-Cyclohexyl-6-[(3-dimethylamino-propyl)-methyl-amino]-1H,1′H-[4,5′]bibenzimidazolyl-7-carboxamide] | 59 | 31 | 82 | 1800
CN(CCO)c1cc(-c2ccc3c(c2)ncn3C2CCCCC2)c2nc[nH]c2c1C(N)=O [Example 117, 1′-Cyclohexyl-6-[(2-hydroxy-ethyl)-methyl-amino]-1H,1′H-[4,5′]bibenzimidazolyl-7-carboxamide] | 23 | 16 | 27 | 560
CN(CCO)c1cc(-c2ccc3c(c2)ncn3[C@@H]2CCCC[C@H]2F)c2nc[nH]c2c1C(N)=O [Example 171] | 15 | 6.7 | 40 | 350
CN(C)CCN(C)c1cc(-c2cc3c4c(c2)ncn4CCO3)c2nc[nH]c2c1C(N)=O [Example 165, 7-(3,4-Dihydro-5-oxa-1.2a-diaza-acenaphthylen-7-yl)-5-[(2-dimethylamino-ethyl)-methyl-amino]-3H-benzimidazole-4-carboxamide] | 29 | 26 | 90 | 2200
CN(C)CCN(C)c1cc(-c2ccc3c(c2)ncn3-c2ccccc2)c2nc[nH]c2c1C(N)=O [Example 204, 5-[2-(dimethylamino)ethyl-methyl-amino]-7-(1-phenylbenzimidazol-5-yl)-3H-benzimidazole-4-carboxamide] | 17 | 12 | 58 | 1400
CN(C)CCOc1cc(-c2cnc3c(c2)CCCO3)c2nc[nH]c2c1C(N)=O [Example 182, 7-(3,4-Dihydro-2H-pyrano[2,3-b]pyridin-6-yl)-5-(2-dimethylamino-ethoxy)-3H-benzimidazole-4-carboxamide methanesulfonic acid salt] | 4.8 | 4.5 | 59 | 480
OCC1(CO)CCN(c2cc(-c3ccc4c(c3)ncn4C3CCCCC3)c3nc[nH]c3n2)CC1 [Example 6, {1-[7-(1-Cyclohexyl-1H-benzimidazol-5-yl)-3H-imidazo[4,5-b]pyridin-5-yl]-4-hydroxymethyl-piperidin-4-yl}-methanol] | 11 | 18 | 29 | 180
OCCC1CCN(c2cc(-c3ccc4c(c3)ncn4C3CCCCC3)c3nc[nH]c3n2)C1 (stereo not drawn) [Example 10, 2-{1-[7-(1-Cyclohexyl-1H-benzimidazol-5-yl)-3H-imidazo[4,5-b]pyridin-5-yl]-pyrrolidin-3-yl}-ethanol] | 160 | 72 | 120 | 3800
OC[C@H]1CCN(c2cc(-c3ccc4c(c3)ncn4C3CCCCC3)c3nc[nH]c3n2)C[C@@H]1O [Example 2, (3R,4R)-1-[7-(1-Cyclohexyl-1H-benzimidazol-5-yl)-3H-imidazo[4,5-b]pyridin-5-yl]-4-hydroxymethyl-piperidin-3-ol] | 66 | 18 | 86 | 500
O=C(NO)c1c(F)cc(-c2ccc3c(c2)ncn3C2CCCCC2)c2nc[nH]c12 [Example 111, 1′-Cyclohexyl-6-fluoro-1H,1′H-[4,5′]bibenzimidazolyl-N-hydroxy-7-carboxamide] | 280 | 610 | 1100 | 11000
N#Cc1c(NCCO)cc(-c2ccc3c(c2)ncn3C2CCCCC2)c2nc[nH]c12 [Example 78] | 210 | 170 | 590 | 5400
